Experimental data from patent US10213433B2 (AbbVie Inc., priority 2010, dated 2019).
pKi: −log10 of the molar value.

What follows are compounds tested against Bcl-2 protein (Homo sapiens (Human), UniProt P10415) (assay: Bcl-2 binding TR-FRET (Time-Resolved Fluorescence-Resonance-Energy-Transfer) assay). Conditions: inhibition constant for binding to Bcl-2 protein.
From the text: The smaller the Ki value, the greater is the binding affinity.

Sequence of Bcl-2 protein (P10415 whole entry): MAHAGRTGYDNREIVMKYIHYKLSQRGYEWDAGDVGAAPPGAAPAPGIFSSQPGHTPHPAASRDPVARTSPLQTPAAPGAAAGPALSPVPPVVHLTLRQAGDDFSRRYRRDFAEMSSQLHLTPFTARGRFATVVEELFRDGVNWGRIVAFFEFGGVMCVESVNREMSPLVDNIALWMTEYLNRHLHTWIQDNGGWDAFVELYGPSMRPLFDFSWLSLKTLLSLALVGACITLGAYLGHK

Row | Compound | pKi
1 | CC1(C)CCC(CN2CCN(c3ccc(C(=O)NS(=O)(=O)c4ccc(OCC5(F)CCNCC5)c([N+](=O)[O-])c4)c(Oc4cnc5[nH]ccc5c4)c3)CC2)=C(c2ccc(Cl)cc2)C1 [Compound 127, 4-(4-{[2-(4-chlorophenyl)-4,4-dimethylcyclohex-1-en-1-yl]methyl}piperazin-1-yl)-N-({4-[(4-fluoropiperidin-4-yl)methoxy]-3-nitrophenyl}sulfonyl)-2-(1H-pyrrolo[2,3-b]pyridin-5-yloxy)benzamide] | > 11.00
2 | CC1(C)CCC(CN2CCN(c3ccc(C(=O)NS(=O)(=O)c4ccc(N[C@@H]5CCN(C6CCOCC6)C5)c([N+](=O)[O-])c4)c(Oc4cnc5[nH]ccc5c4)c3)CC2)=C(c2ccc(Cl)cc2)C1 [Compound 130, 4-(4-{[2-(4-chlorophenyl)-4,4-dimethylcyclohex-1-en-1-yl]methyl}piperazin-1-yl)-N-[(3-nitro-4-{[(3R)-1-tetrahydro-2H-pyran-4-ylpyrrolidin-3-yl]amino}phenyl)sulfonyl]-2-(1H-pyrrolo[2,3-b]pyridin-5-yloxy)benzamide] | > 11.00
3 | CC1(C)CCC(CN2CCN(c3ccc(C(=O)NS(=O)(=O)c4ccc(N[C@@H]5CCN(C6CCOC(C)(C)C6)C5)c([N+](=O)[O-])c4)c(Oc4cnc5[nH]ccc5c4)c3)CC2)=C(c2ccc(Cl)cc2)C1 (stereo partly drawn) [Compound 131, 4-(4-{[2-(4-chlorophenyl)-4,4-dimethylcyclohex-1-en-1-yl]methyl}piperazin-1-yl)-N-[(4-{[(3R)-1-(2,2-dimethyltetrahydro-2H-pyran-4-yl)pyrrolidin-3-yl]amino}-3-nitrophenyl)sulfonyl]-2-(1H-pyrrolo[2,3-b]pyridin-5-yloxy)benzamide] | > 11.00
4 | CC1(C)CCC(CN2CCN(c3ccc(C(=O)NS(=O)(=O)c4ccc(N[C@H]5CCN(C6CCOCC6)C5)c([N+](=O)[O-])c4)c(Oc4cnc5[nH]ccc5c4)c3)CC2)=C(c2ccc(Cl)cc2)C1 [Compound 132, 4-(4-{[2-(4-chlorophenyl)-4,4-dimethylcyclohex-1-en-1-yl]methyl}piperazin-1-yl)-N-[(3-nitro-4-{[(3S)-1-tetrahydro-2H-pyran-4-ylpyrrolidin-3-yl]amino}phenyl)sulfonyl]-2-(1H-pyrrolo[2,3-b]pyridin-5-yloxy)benzamide] | > 11.00
5 | CC1(C)CCC(CN2CCN(c3ccc(C(=O)NS(=O)(=O)c4ccc(N[C@H]5CCN(C6CCOC(C)(C)C6)C5)c([N+](=O)[O-])c4)c(Oc4cnc5[nH]ccc5c4)c3)CC2)=C(c2ccc(Cl)cc2)C1 (stereo partly drawn) [Compound 133, 4-(4-{[2-(4-chlorophenyl)-4,4-dimethylcyclohex-1-en-1-yl]methyl}piperazin-1-yl)-N-[(4-{[(3S)-1-(2,2-dimethyltetrahydro-2H-pyran-4-yl)pyrrolidin-3-yl]amino}-3-nitrophenyl)sulfonyl]-2-(1H-pyrrolo[2,3-b]pyridin-5-yloxy)benzamide] | > 11.00
6 | CN1CCOC(CNc2ccc(S(=O)(=O)NC(=O)c3ccc(N4CCN(CC5=C(c6ccc(Cl)cc6)CC(C)(C)CC5)CC4)cc3Oc3cnc4[nH]ccc4c3)cc2[N+](=O)[O-])C1 (stereo not drawn) [Compound 134, 4-(4-{[2-(4-chlorophenyl)-4,4-dimethylcyclohex-1-en-1-yl]methyl}piperazin-1-yl)-N-[(4-{[(4-methylmorpholin-2-yl)methyl]amino}-3-nitrophenyl)sulfonyl]-2-(1H-pyrrolo[2,3-b]pyridin-5-yloxy)benzamide] | > 11.00
7 | COCCN1CCOC(CNc2ccc(S(=O)(=O)NC(=O)c3ccc(N4CCN(CC5=C(c6ccc(Cl)cc6)CC(C)(C)CC5)CC4)cc3Oc3cnc4[nH]ccc4c3)cc2[N+](=O)[O-])C1 (stereo not drawn) [Compound 135, 4-(4-{[2-(4-chlorophenyl)-4,4-dimethylcyclohex-1-en-1-yl]methyl}piperazin-1-yl)-N-{[4-({[4-(2-methoxyethyl)morpholin-2-yl]methyl}amino)-3-nitrophenyl]sulfonyl}-2-(1H-pyrrolo[2,3-b]pyridin-5-yloxy)benzamide] | > 11.00
8 | CC(=O)N1CCOC(CNc2ccc(S(=O)(=O)NC(=O)c3ccc(N4CCN(CC5=C(c6ccc(Cl)cc6)CC(C)(C)CC5)CC4)cc3Oc3cnc4[nH]ccc4c3)cc2[N+](=O)[O-])C1 (stereo not drawn) [Compound 136, N-[(4-{[(4-acetylmorpholin-2-yl)methyl]amino}-3-nitrophenyl)sulfonyl]-4-(4-{[2-(4-chlorophenyl)-4,4-dimethylcyclohex-1-en-1-yl]methyl}piperazin-1-yl)-2-(1H-pyrrolo[2,3-b]pyridin-5-yloxy)benzamide] | > 11.00
9 | CC1(C)CCC(CN2CCN(c3ccc(C(=O)NS(=O)(=O)c4ccc(NCC5(F)CCOCC5)c([N+](=O)[O-])c4)c(Oc4cnc5[nH]ccc5c4)c3)CC2)=C(c2ccc(Cl)cc2)C1 [Compound 138, 4-(4-{[2-(4-chlorophenyl)-4,4-dimethylcyclohex-1-en-1-yl]methyl}piperazin-1-yl)-N-[(4-{[(4-fluorotetrahydro-2H-pyran-4-yl)methyl]amino}-3-nitrophenyl)sulfonyl]-2-(1H-pyrrolo[2,3-b]pyridin-5-yloxy)benzamide] | > 11.00
10 | CC1(C)CCC(CN2CCN(c3ccc(C(=O)NS(=O)(=O)c4ccc(NC5CCN(C6COC6)CC5)c([N+](=O)[O-])c4)c(Oc4cnc5[nH]ccc5c4)c3)CC2)=C(c2ccc(Cl)cc2)C1 [Compound 139, 4-(4-{[2-(4-chlorophenyl)-4,4-dimethylcyclohex-1-en-1-yl]methyl}piperazin-1-yl)-N-({3-nitro-4-[(1-oxetan-3-ylpiperidin-4-yl)amino]phenyl}sulfonyl)-2-(1H-pyrrolo[2,3-b]pyridin-5-yloxy)benzamide] | > 11.00
11 | CC1(C)CCC(CN2CCN(c3ccc(C(=O)NS(=O)(=O)c4ccc(NC5CCN(C6CCC6)CC5)c([N+](=O)[O-])c4)c(Oc4cnc5[nH]ccc5c4)c3)CC2)=C(c2ccc(Cl)cc2)C1 [Compound 140, 4-(4-{[2-(4-chlorophenyl)-4,4-dimethylcyclohex-1-en-1-yl]methyl}piperazin-1-yl)-N-({4-[(1-cyclobutylpiperidin-4-yl)amino]-3-nitrophenyl}sulfonyl)-2-(1H-pyrrolo[2,3-b]pyridin-5-yloxy)benzamide] | > 11.00
12 | CC1(C)CCC(CN2CCN(c3ccc(C(=O)NS(=O)(=O)c4ccc(NC5CCN(C6CCOC(C)(C)C6)CC5)c([N+](=O)[O-])c4)c(Oc4cnc5[nH]ccc5c4)c3)CC2)=C(c2ccc(Cl)cc2)C1 (stereo not drawn) [Compound 141, 4-(4-{[2-(4-chlorophenyl)-4,4-dimethylcyclohex-1-en-1-yl]methyl}piperazin-1-yl)-N-[(4-{[1-(2,2-dimethyltetrahydro-2H-pyran-4-yl)piperidin-4-yl]amino}-3-nitrophenyl)sulfonyl]-2-(1H-pyrrolo[2,3-b]pyridin-5-yloxy)benzamide] | > 11.00
13 | CC1(C)CCC(CN2CCN(c3ccc(C(=O)NS(=O)(=O)c4ccc(NC5CCN(C6CCOC6)CC5)c([N+](=O)[O-])c4)c(Oc4cnc5[nH]ccc5c4)c3)CC2)=C(c2ccc(Cl)cc2)C1 (stereo not drawn) [Compound 143, 4-(4-{[2-(4-chlorophenyl)-4,4-dimethylcyclohex-1-en-1-yl]methyl}piperazin-1-yl)-N-({3-nitro-4-[(1-tetrahydrofuran-3-ylpiperidin-4-yl)amino]phenyl}sulfonyl)-2-(1H-pyrrolo[2,3-b]pyridin-5-yloxy)benzamide] | > 11.00
14 | CC1(C)CCC(CN2CCN(c3ccc(C(=O)NS(=O)(=O)c4ccc(N[C@@H]5CCN(C6CC6)C5)c([N+](=O)[O-])c4)c(Oc4cnc5[nH]ccc5c4)c3)CC2)=C(c2ccc(Cl)cc2)C1 [Compound 144, 4-(4-{[2-(4-chlorophenyl)-4,4-dimethylcyclohex-1-en-1-yl]methyl}piperazin-1-yl)-N-[(4-{[(3R)-1-cyclopropylpyrrolidin-3-yl]amino}-3-nitrophenyl)sulfonyl]-2-(1H-pyrrolo[2,3-b]pyridin-5-yloxy)benzamide] | > 11.00
15 | CC1(C)CCC(CN2CCN(c3ccc(C(=O)NS(=O)(=O)c4ccc(NC[C@@H]5CCN(C6CCOCC6)C5)c([N+](=O)[O-])c4)c(Oc4cnc5[nH]ccc5c4)c3)CC2)=C(c2ccc(Cl)cc2)C1 [Compound 145, 4-(4-{[2-(4-chlorophenyl)-4,4-dimethylcyclohex-1-en-1-yl]methyl}piperazin-1-yl)-N-{[3-nitro-4-({[(3S)-1-tetrahydro-2H-pyran-4-ylpyrrolidin-3-yl]methyl}amino)phenyl]sulfonyl}-2-(1H-pyrrolo[2,3-b]pyridin-5-yloxy)benzamide] | > 11.00
16 | CC(C)(CO)CNc1ccc(S(=O)(=O)NC(=O)c2ccc(N3CCN(CC4=C(c5ccc(Cl)cc5)CC(C)(C)CC4)CC3)cc2Oc2cnc3[nH]ccc3c2)cc1[N+](=O)[O-] [Compound 146, 4-(4-{[2-(4-chlorophenyl)-4,4-dimethylcyclohex-1-en-1-yl]methyl}piperazin-1-yl)-N-({4-[(3-hydroxy-2,2-dimethylpropyl)amino]-3-nitrophenyl}sulfonyl)-2-(1H-pyrrolo[2,3-b]pyridin-5-yloxy)benzamide] | > 11.00
17 | CC1(C)CCC(CN2CCN(c3ccc(C(=O)NS(=O)(=O)c4ccc(NCC5CCCN(S(C)(=O)=O)C5)c([N+](=O)[O-])c4)c(Oc4cnc5[nH]ccc5c4)c3)CC2)=C(c2ccc(Cl)cc2)C1 (stereo not drawn) [Compound 147, 4-(4-{[2-(4-chlorophenyl)-4,4-dimethylcyclohex-1-en-1-yl]methyl}piperazin-1-yl)-N-{[4-({[1-(methylsulfonyl)piperidin-3-yl]methyl}amino)-3-nitrophenyl]sulfonyl}-2-(1H-pyrrolo[2,3-b]pyridin-5-yloxy)benzamide] | > 11.00
18 | CC(=O)N1CCCC(CNc2ccc(S(=O)(=O)NC(=O)c3ccc(N4CCN(CC5=C(c6ccc(Cl)cc6)CC(C)(C)CC5)CC4)cc3Oc3cnc4[nH]ccc4c3)cc2[N+](=O)[O-])C1 (stereo not drawn) [Compound 148, N-[(4-{[(1-acetylpiperidin-3-yl)methyl]amino}-3-nitrophenyl)sulfonyl]-4-(4-{[2-(4-chlorophenyl)-4,4-dimethylcyclohex-1-en-1-yl]methyl}piperazin-1-yl)-2-(1H-pyrrolo[2,3-b]pyridin-5-yloxy)benzamide] | > 11.00
